Assay results published in patent publication US12357579B2, “Capsule for treating ulcerative colitis” (KEIO UNIVERSITY, priority 2018, dated 2025).

Assays:
[1] = system: colitis model mice (2.0% DSS, C57BL/6J); assay: DSS-induced colitis model mice: colitis-suppressing action (body weight, DAI score, colon length); type: in vivo; conditions: oral, 7 days; for effect on colitis (overall): indigo amount 0.5 mg/day (equivalent to 25 mg/kg/day)
Experimental: As mice used in an animal test, C57BL/6J was started to use after preliminary breeding for 3 days after purchase. First, a 2.0% solution of DSS (dextran sulfate sodium salt, molecular weight 36,000 to 44,000) was given to mice to cause colitis to prepare colitis model mice. The colitis model mice were administered with only sterilized water to obtain control mice. It should be noted that, in order to maintain the colitis state of the mice for 7 days, the 2.0% DDS (dextran sulfate sodium salt) solution was orally administered at the same time as the administration of the sterile water. Five capsules (equivalent to indigo amount of 0.5 mg) and 15 capsules (equivalent to indigo amount of 1.5 mg) both of which were the indigo-containing capsules A were each orally administered to 5 specimens of colitis mice for 7 days. It should be noted that, in order to maintain the colitis state of the mice for 7 days, the 2.0% DDS (dextran sulfate sodium salt) solution was orally administered at the same time when the oral administration of the capsules A. Colitis-suppressing action of indigo was evaluated by a decrease in the endpoints such as body weight (BW), disease activity index (DAI) score (DAI score: a total score (0 to 12) of the number of defecation, bloody stool, mucosal findings, and general endpoints scored 0 to 3 on a 4-point scale), and colon length. […] FIG. 3 is a graph representing results of disease activity index score (DAI score). It should be noted that the DAI score refers to an evaluation index described in the literature “Sutherland L R, Martin F, Greer S, et al: 5-Aminosalicylic acid enema in the treatment of distal colitis, proctosigmoiditis, and proctitis. Gastroenterology 92: 1894-1898, 1987”. FIG. 4 is a graph representing results of measuring colon length. Since the colon length is shortened by causing colitis, the colon length of each mouse group was measured as another index for the evaluation of colitis, and the average value thereof was represented by a histogram.

mouse model of colitis = conditions: cited from earlier work
[2] = indigo amount 0.5 mg/day, vs control group

Question: What does the source list for `O=C1/C(=C2\Nc3ccccc3C2=O)Nc2ccccc21` [indigo powder, indigo]?
Answer: effect on colitis (overall) [1]: no effect of indigo was observed; effect on colitis (overall) ([1]; listed as powder): no effect; changes in body weight (BW) [1, 2]: decreasing the body weight was also observed as compared with the control group; colon length [1, 2]: the same as that of the control group; effect in colitis model mice (mouse model of colitis; low dose 60 mg/kg/day of powder): effective; therapeutic effect in mouse model of colitis (mouse model of colitis; powder administration): had a therapeutic effect
